Patent US20060165654A1, “Peptides and recombinant proteins mimicking interferons” (priority 2002, published 2006)
“Also recorded” adds a separate entry of the source.

Legend:
[1] = tested on: virus of mouse encephalomiocarditis; assay: antiviral activity: suppression of cytopathic action of test-virus in L-41 and VERO cell cultures; format: cell-based; conditions: L-41 and VERO cells
Description: FIG. 7 Antiviral properties of de novo proteins and interferons in cell cultures L41 (human mononuclear leucosis) and VERO (kidney of green simian). The activity of preparations was determined as a minimal concentration leading to a 50% delay of the virus of mouse encephalomiocarditis cytopathic action. The average values of three independent experiments are shown ± the standard deviations.
FIG. 8 Antiviral properties of de novo proteins in the cell cultures L-41 (human mononuclear leucosis) and VERO (kidney of green simian). […] The average values of three independent experiments are shown ± standard deviations.
The average values of three independent experiments are shown ± standard deviations.
(§1) Antiviral and cytotoxity properties of obtained proteins. Testing of antiviral activity of the proteins was carried out in vitro monitoring the ability of the preparation to suppress cytopathic action of the test-virus (Ershov F., 1996, Interferon system: norm and pathology, Moscow, Medicine). Two cell lines were used in experiments: cells of human mononuclear leucosis L41 and green simian kidney VERO.
as §1, with “Antiviral” for “Antiviral and cytotoxity”, “synthetic linear peptides.” for “obtained proteins.”, “synthetic linear peptides” for “proteins”, “L-41” for “L41”

[2] = tested on: human T-lymphoblastoid cell line MT4; conditions: cited from earlier work

Substance	antiviral activity (in words) [1]	concentrations suppressing proliferation of MT4 [2]	antiviral activity compared with human interferon-α2 ([1]; minimal concentration giving 50% delay of cytopathic action)
LKDRHDF (human interferon alfa2)	demonstration of antiviral activity		
LKEKKYSP (human interferon alfa2) [reference compound]	demonstration of antiviral activity	10^−9-10^−8 M	
LKEKKYSP-Ser-Ser-LKDRHDF (LKEKKYSPSSLKDRHDF; human interferon alfa2)	demonstration of antiviral activity		only one order of magnitude less; also recorded: practically completely reproduces antiviral properties of human interferon-α2
